Data as given in patent US20230212174A1, “PYRROLO[2,1-F][1,2,4]TRIAZINE DERIVATIVE AND USE THEREOF” (Tencent Technology (Shenzhen) Company Limited, priority 2021, published 2023).

These compounds were tested against T1, TTK (Homo sapiens, UniProt P33981) (assay: TTK inhibitory activity (kinase reaction, Fluorescein-PolyGT substrate, antibody/EDTA stop, Envision read)). Details: 0.5 nM TTK, 7 uM ATP, 0.2 uM Fluorescein-PolyGT, 28° C., 30 min.
T1 sequence (P33981 1-857): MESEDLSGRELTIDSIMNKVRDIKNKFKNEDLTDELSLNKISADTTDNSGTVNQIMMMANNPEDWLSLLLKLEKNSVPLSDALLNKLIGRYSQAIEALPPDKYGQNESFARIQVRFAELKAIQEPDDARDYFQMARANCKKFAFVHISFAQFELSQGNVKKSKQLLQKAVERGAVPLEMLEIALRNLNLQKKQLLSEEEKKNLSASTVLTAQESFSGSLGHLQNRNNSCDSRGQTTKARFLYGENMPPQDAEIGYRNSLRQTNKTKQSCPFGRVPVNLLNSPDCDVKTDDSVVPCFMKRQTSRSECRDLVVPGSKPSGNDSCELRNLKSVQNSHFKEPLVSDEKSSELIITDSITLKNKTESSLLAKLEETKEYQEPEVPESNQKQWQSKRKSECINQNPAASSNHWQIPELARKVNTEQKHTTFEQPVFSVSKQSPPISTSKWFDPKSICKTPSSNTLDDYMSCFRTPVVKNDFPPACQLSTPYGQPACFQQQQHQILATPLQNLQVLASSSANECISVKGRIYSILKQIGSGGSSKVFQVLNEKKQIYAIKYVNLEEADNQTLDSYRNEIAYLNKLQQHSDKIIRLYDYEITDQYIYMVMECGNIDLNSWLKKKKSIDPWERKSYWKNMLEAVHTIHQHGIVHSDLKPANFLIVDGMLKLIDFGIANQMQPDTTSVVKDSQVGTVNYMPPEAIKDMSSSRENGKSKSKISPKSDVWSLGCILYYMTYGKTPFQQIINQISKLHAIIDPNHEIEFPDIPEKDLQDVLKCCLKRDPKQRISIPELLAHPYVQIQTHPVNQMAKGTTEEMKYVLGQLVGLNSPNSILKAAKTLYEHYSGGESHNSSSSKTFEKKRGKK
Assay type: biochemical
Experimental: The experiment aims to detect the inhibitory activity of the compound of the present disclosure on TTK in vitro.
The TTK kinase reaction system was 10 μL, including 0.5 nM TTK, test compound over a concentration gradient, 10 mM MgCl2, 2 mM DTT, 7 uM ATP, 0.2 uM Fluorescein-PolyGT (Fluorescein-Poly Glu:Tyr (4:1)), 0.01% Triton X-100, 0.01% BSA, and 50 mM HEPES pH 7.5. The enzyme and the test compound of the present disclosure were added into a 384-well plate, and then a substrate and ATP were added. Then the system was incubated at a constant temperature of 28° C. 30 min after the reaction, 10 μL of a mixed solution of a corresponding antibody and EDTA was added to terminate the reaction, and incubated for 60 min at a constant temperature of 28° C. The data was read on Envision instrument. A curve was plotted with the Log concentration of the inhibitor as the X axis and the inhibition rate as the Y axis, and IC50 was calculated by Y=Bottom+(Top-Bottom)/(1+(IC50/X)^HillSlope).
CCOc1cc(-c2nncn2C)ccc1Nc1nc(NCC(C)(C)C)c2cccn2n1 [Compound 1] was tested, and the IC50 was 27 nM. For CCOc1cc(-c2nncn2C)ccc1Nc1nc(NC2CCCC2)c2cccn2n1 [Compound 3], the IC50 was 8.9 nM. In the case of CCOc1cc(-c2nncn2C)ccc1Nc1nc(NC2CCOCC2)c2cccn2n1 [Compound 4], the IC50 is reported as 4 nM. In the case of CCOc1cc(-c2nncn2C)ccc1Nc1nc(NC2CCCCC2)c2c(Cl)ccn2n1 [Compound 10], the IC50 is reported as 5.5 nM. With CCOc1cc(-c2nncn2C)ccc1Nc1ncc2ccc(C3=CCCC3)n2n1 [Compound 12] the IC50 was 8.7 nM. CCOc1cc(-c2nncn2C)ccc1Nc1ncc2ccc(C3CCCC3)n2n1 [Compound 13] gave an IC50 of 7.1 nM. For CCOc1cc(-c2nncn2C)ccc1Nc1ncc2ccc(C3CCCCC3)n2n1 [Compound 15], the IC50 was 4.2 nM. CCOc1cc(-c2nncn2C)ccc1Nc1ncc2ccc(C3CCOCC3)n2n1 [Compound 17] was tested, and the IC50 was 6.3 nM. CCOc1cc(-c2nncn2C)ccc1Nc1ncc2ccc(-c3cnn(C)c3)n2n1 [Compound 18] gave an IC50 of 2.1 nM.
